Measured values reported in paper PMC6272576, “PLS-Prediction and Confirmation of Hydrojuglone Glucoside as the Antitrypanosomal Constituent of Juglans Spp” (Molecules, 2015).
Where two headings read alike, the source gives them in different places.

Key:
Format in all cases: cell-based
[1] = tested on: Trypanosoma brucei rhodesiense strain STIB 900 (bloodstream trypomastigotes); assay: microbe, parasite or virus in culture; conditions: for IC50: read-out: IC50 TB
[2] = tested on: Trypanosoma cruzi strain Tulahuen C2C4 (intracellular amastigotes in L6 cells); assay: in vitro growth inhibition of T. cruzi; conditions: for SI TC: ratio of cytotoxic (L6) over antiparasitic IC50
[3] = tested on: Leishmania donovani strain MHOM/ET/67/L82 (axenic amastigotes); assay: in vitro growth inhibition of L. donovani; conditions: for IC50: read-out: IC50 LD
[4] = tested on: L6 rat skeletal myoblasts; assay: cytotoxicity against mammalian cells; conditions: read-out: IC50 L6
[5] = Trypanosoma brucei, pure compound
[6] = ratio of cytotoxic (L6) over antiparasitic IC50
[7] = Trypanosoma cruzi, TULAHUEN, L6, pure compound, read-out: IC50 TC
[8] = Leishmania donovani, pure compound
[9] = Rattus norvegicus, Myoblast, cytotoxicity, pure compound
[10] = pure compound, read-out: IC50 TC

## O=C1C=CC(=O)c2ccccc21 [1,4-Naphthoquinone]
[1]; [5]
  IC50: 0.58 µM
[1]; [6]
  SI TB: 11.1
[2]; [7]
  IC50: 9.24 µM
[2]
  SI TC: 0.7
[3]; [8]
  IC50: 2380 nM
[3]; [6]
  SI LD: 2.7
[4]; [9]
  IC50: 6.39 µM

## O=C1C(O)=C(C2=C(O)C(=O)c3ccccc3C2=O)C(=O)c2ccccc21 [2,2′-bis-(3-Hydroxy-1,4-naphthoquinone)]
[1]; pure compound
  IC50: 68.8 µM
[1]; [6]
  SI TB: 0.9
[2]; [10]
  IC50: 237 µM
[2]
  SI TC: 0.3
[3]; pure compound
  IC50: 7340 nM
[3]; [6]
  SI LD: 8.4
[4]; cytotoxicity, pure compound
  IC50: 61.6 µM

## OC[C@H]1O[C@@H](Oc2ccc(O)cc2)[C@H](O)[C@@H](O)[C@@H]1O [Arbutin (1,4-benzoquinone glucoside), Arbutin]
[1]; [5]
  IC50: 236 µM
[1]; [6]
  SI TB: >1.5
[2]; [7]
  IC50: 244 µM
[2]
  SI TC: >1.5
[3]; [8]
  IC50: > 367000 nM
[4]; [9]
  IC50: > 367 µM

## O=C(Cn1ccnc1[N+](=O)[O-])NCc1ccccc1 [Benznidazole]
[2]; [7]
  IC50: 2.33 µM

## OC[C@H]1O[C@@H](Oc2ccc(O)c3cccc(O)c23)[C@H](O)[C@@H](O)[C@@H]1O [Compound 1, 4-O-β-D-Glucopyranosyl-1,4,5-trihydroxynaphthalene]
[1]
  SI TB: 20.0
[1]; [5]
  IC50: 6.1 µM
[1]; Trypanosoma brucei
  IC50: 6.12 µM
[2]; [7]
  IC50: 169 µM
[2]
  SI TC: 0.7
[3]; [8]
  IC50: 16700 nM
[3]; pure compound, listed as Hydrojuglone glucoside (1)
  IC50: 16600 nM
[3]; [6]
  SI LD: 7.3
[3]; ratio of cytotoxic (L6) over antiparasitic IC50, listed as Hydrojuglone glucoside (1)
  SI LD: 7.4
[4]; [9]
  IC50: 122 µM
[4]; cytotoxicity, pure compound, listed as Hydrojuglone glucoside (1)
  IC50: 122 µM

## O=C1C=CC(=O)c2c(O)cccc21 [Juglone]
[1]
  SI TB: 13.0
[1]; Trypanosoma brucei
  IC50: 1.62 µM
[2]; [7]
  IC50: > 100 µM
[3]
  SI LD: 10.4
[3]; Leishmania donovani
  IC50: 2020 nM
[4]; [9]
  IC50: 21 µM

## CC(C)=CCC1=C(O)C(=O)c2ccccc2C1=O [Lapachol]
[1]; [5]
  IC50: 16.4 µM
[1]; [6]
  SI TB: 1.6
[2]; [7]
  IC50: 17.6 µM
[2]
  SI TC: 1.5
[3]; [8]
  IC50: 3330 nM
[3]; [6]
  SI LD: 8.0
[4]; [9]
  IC50: 26.6 µM

## O=C1C=C(O)C(=O)c2ccccc21 [Lawson]
[1]; pure compound
  IC50: 101 µM
[1]; [6]
  SI TB: 0.2
[2]; [10]
  IC50: 37.4 µM
[2]
  SI TC: 0.6
[3]; pure compound
  IC50: 1990 nM
[3]; [6]
  SI LD: 10.3
[4]; cytotoxicity, pure compound
  IC50: 20.6 µM

## Nc1nc(N)nc(Nc2ccc([As]3SCC(CO)S3)cc2)n1 (stereo not drawn) [Melarsoprol]
[1]; [5]
  IC50: 0.005 µM

## CCCCCCCCCCCCCCCCOP(=O)([O-])OCC[N+](C)(C)C [Miltefosine]
[3]; [8]
  IC50: 180 nM

## CC1=CC(=O)c2c(O)cccc2C1=O [Plumbagin]
[1]; [5]
  IC50: 0.49 µM
[1]; [6]
  SI TB: 5.9
[2]; [7]
  IC50: 3.59 µM
[2]
  SI TC: 0.8
[3]; [8]
  IC50: 880 nM
[3]; [6]
  SI LD: 3.3
[4]; [9]
  IC50: 2.87 µM

## COc1cc([C@@H]2c3cc4c(cc3[C@H](O)[C@H]3COC(=O)[C@H]23)OCO4)cc(OC)c1OC [Podophyllotoxin]
[4]; [9]
  IC50: 0.014 µM

## CC(C)=CC[C@@H](O)C1=CC(=O)c2c(O)ccc(O)c2C1=O [Shikonin]
[1]; [5]
  IC50: 0.03 µM
[1]; [6]
  SI TB: 2.1
[2]; Trypanosoma cruzi, TULAHUEN, L6, read-out: IC50 TC
  IC50: 0.27 µM
[2]
  SI TC: 0.2
[3]; Leishmania donovani
  IC50: 120 nM
[3]; [6]
  SI LD: 0.5
[4]; Rattus norvegicus, Myoblast
  IC50: 0.06 µM
